As a reminder, the IC50 is the concentration at which inhibition is half-maximal. Low values mean greater potency, high ones weaker potency.

Structures are written as SMILES. Structures can show the parent of a compound that is named as a salt.

The target of one assay is T1, human TLR7 (Homo sapiens, UniProt Q9NYK1).
T1 construct: host or cells: HEK-Blue cells
T1 sequence (Q9NYK1 27-1049): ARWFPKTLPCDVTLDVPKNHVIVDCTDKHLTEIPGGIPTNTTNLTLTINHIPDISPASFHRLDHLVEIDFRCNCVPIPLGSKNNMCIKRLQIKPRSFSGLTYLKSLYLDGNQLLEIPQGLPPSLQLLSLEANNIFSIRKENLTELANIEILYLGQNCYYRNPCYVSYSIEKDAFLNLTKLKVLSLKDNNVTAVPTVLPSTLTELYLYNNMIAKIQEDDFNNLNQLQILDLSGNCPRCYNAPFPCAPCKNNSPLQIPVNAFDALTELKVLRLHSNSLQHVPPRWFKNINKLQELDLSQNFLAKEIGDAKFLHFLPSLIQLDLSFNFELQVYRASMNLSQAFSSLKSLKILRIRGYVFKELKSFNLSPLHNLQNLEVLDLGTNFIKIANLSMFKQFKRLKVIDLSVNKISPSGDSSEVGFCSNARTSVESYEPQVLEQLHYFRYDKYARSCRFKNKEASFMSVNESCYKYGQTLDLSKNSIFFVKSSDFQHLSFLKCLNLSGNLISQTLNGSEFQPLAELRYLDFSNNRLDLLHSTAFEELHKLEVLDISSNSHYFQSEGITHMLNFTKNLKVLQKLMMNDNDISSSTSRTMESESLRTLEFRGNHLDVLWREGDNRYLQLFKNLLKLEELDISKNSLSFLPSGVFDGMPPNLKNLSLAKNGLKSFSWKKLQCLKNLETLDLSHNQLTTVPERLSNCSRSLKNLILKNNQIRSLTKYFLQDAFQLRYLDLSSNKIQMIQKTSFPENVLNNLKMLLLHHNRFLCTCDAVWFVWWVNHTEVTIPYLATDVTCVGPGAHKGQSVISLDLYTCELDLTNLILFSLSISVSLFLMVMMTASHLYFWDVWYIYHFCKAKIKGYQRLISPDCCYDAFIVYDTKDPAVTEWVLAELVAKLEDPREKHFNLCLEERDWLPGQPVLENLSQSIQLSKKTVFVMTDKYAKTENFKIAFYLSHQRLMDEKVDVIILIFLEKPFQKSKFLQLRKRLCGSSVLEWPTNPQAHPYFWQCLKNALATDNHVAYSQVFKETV
As to the kind of experiment: TLR7 inhibition reporter assay (HEK-Blue cells, SEAP reporter, gardiquimod stimulation). In kind it is cell-based. The note with it: HEK-Blue cells overexpressing human TLR7, gardiquimod 7.5 μM. As for the experimental part: (§1) TLR7/8/9 Inhibition Reporter Assays
Briefly, cells are seeded into Greiner 384 well plates (15000 cells per well for TLR7, 20,000 for TLR8 and 25,000 for TLR9) and then treated with test compounds in DMSO to yield a final dose response concentration range of 0.05 nM-50 μM. […] After a 22 hour incubation at 37° C., 5% CO2, SEAP levels are determined with the addition of HEK-Blue™ Detection reagent (Invivogen), a cell culture medium that allows for detection of SEAP, according to manufacturer's specifications. The percent inhibition is determined as the % reduction in the HEK-Blue signal present in wells treated with agonist plus DMSO alone compared to wells treated with a known inhibitor.
On the technique in general: A reporter such as luciferase makes a cellular process visible.

Another assay has as its target T2, human TLR9 (Homo sapiens, UniProt Q9NR96).
T2 construct: host or cells: HEK-Blue cells
T2 sequence (Q9NR96 26-1032): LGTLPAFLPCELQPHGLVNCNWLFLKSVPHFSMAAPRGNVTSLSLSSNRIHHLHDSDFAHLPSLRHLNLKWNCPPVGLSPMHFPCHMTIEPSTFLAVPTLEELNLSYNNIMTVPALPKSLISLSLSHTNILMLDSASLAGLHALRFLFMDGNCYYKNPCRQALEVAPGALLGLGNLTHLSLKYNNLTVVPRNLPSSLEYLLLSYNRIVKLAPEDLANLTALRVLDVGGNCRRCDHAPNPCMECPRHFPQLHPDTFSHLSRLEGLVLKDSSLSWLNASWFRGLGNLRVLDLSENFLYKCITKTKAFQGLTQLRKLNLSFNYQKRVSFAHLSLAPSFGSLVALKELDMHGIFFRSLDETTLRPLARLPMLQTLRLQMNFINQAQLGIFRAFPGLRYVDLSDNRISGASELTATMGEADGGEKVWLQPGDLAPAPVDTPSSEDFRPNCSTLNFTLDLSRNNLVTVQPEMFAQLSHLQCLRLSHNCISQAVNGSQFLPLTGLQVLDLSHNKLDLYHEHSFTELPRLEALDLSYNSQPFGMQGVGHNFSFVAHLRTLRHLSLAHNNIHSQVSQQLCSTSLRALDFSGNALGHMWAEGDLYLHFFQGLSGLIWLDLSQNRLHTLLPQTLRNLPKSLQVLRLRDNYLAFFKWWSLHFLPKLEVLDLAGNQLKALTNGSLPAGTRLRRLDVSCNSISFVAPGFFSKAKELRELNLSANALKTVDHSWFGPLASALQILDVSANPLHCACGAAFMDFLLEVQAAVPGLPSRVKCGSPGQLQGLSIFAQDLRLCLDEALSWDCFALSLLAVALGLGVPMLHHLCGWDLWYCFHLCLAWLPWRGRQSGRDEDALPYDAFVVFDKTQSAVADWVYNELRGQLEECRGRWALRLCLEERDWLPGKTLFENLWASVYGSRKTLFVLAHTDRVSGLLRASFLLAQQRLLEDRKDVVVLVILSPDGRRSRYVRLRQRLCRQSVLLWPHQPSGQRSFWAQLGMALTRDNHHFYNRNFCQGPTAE
As to the kind of experiment: TLR9 inhibition reporter assay (HEK-Blue cells, SEAP reporter, ODN2006 stimulation). The note with it: HEK-Blue cells overexpressing human TLR9, ODN2006 5 nM. In kind it is cell-based. The protocol:
as §1
HEK-Blue™-cells (Invivogen) overexpressing human TLR7, TLR8 or TLR9 receptors were used for screening inhibitors of these receptors using an inducible SEAP (secreted embryonic alkaline phosphatase) reporter gene under the control of the IFN-β minimal promoter fused to five NF-κB and AP-1-binding sites. Briefly, cells are seeded into Greiner 384 well plates (15000 cells per well for TLR7, 20,000 for TLR8 and 25,000 for TLR9) and then treated with test compounds in DMSO to yield a final dose response concentration range of 0.05 nM-50 μM. After a 30 minute compound pre-treatment at room temperature, the cells are then stimulated with a TLR7 ligand (gardiquimod at a final concentration of 7.5 μM), TLR8 ligand (R848 at a final concentration of 15.9 μM) or TLR9 ligand (ODN2006 at a final concentration of 5 nM) to activate NF-κB and AP-1 which induce the production of SEAP. After a 22 hour incubation at 37° C., 5% CO2, SEAP levels are determined with the addition of HEK-Blue™ Detection reagent (Invivogen), a cell culture medium that allows for detection of SEAP, according to manufacturer's specifications. The percent inhibition is determined as the % reduction in the HEK-Blue signal present in wells treated with agonist plus DMSO alone compared to wells treated with a known inhibitor.

In the case of `COc1ccc(-c2[nH]c3ccc(C4CCN(C(C)CN(C)C)CC4)cc3c2C)cc1OC` (centres unmarked) [Example 30, 2-(4-(2-(3,4-dimethoxyphenyl)-3-methyl-1H-indol-5-yl)piperidin-1-yl)-N,N-dimethylpropan-1-amine], the IC50 at human TLR7 was 666 nM; on human TLR9, 860 nM.

Regarding `COc1ccc(-c2[nH]c3ccc(C4CCN(Cc5ccc(N(C)C)cc5)CC4)cc3c2C(C)C)cc1OC` [Example 270, 4-((4-(2-(3,4-dimethoxyphenyl)-3-isopropyl-1H-indol-5-yl)piperidin-1-yl)methyl)-N,N-dimethylaniline], the IC50 at human TLR7 amounted to 191 nM; against human TLR9, 1940 nM.

`CCNCC(=O)N1CCC(c2ccc3[nH]c(-c4ccc(OC)c(OC)c4)c(C)c3c2)CC1` [Example 113, 1-(4-(2-(3,4-dimethoxyphenyl)-3-methyl-1H-indol-5-yl)piperidin-1-yl)-2-(ethylamino)ethan-1-one]: the IC50 was found to be 371 nM against human TLR7 and 885 nM on human TLR9.

As for `COc1ccc(-c2[nH]c3ccc(C4CCN(Cc5ccc(-n6cncn6)cc5)CC4)cc3c2C)cc1OC` [Example 34, 5-(1-(4-(1H-1,2,4-triazol-1-yl)benzyl)piperidin-4-yl)-2-(3,4-dimethoxyphenyl)-3-methyl-1H-indole], the IC50 amounted to 673 nM against human TLR7 and 347 nM against human TLR9.

Turning to `COc1ccc(-c2[nH]c3ccc(C4CCN(C5CCCN(CC(C)C)C5)CC4)cc3c2C)cc1OC` (centres unmarked) [Example 416, 2-(3,4-dimethoxyphenyl)-5-(1′-isobutyl-[1,3′-bipiperidin]-4-yl)-3-methyl-1H-indole], the IC50 at human TLR7 amounted to 677 nM; on human TLR9, 291 nM.

Take `CCC(CC)CN1CCC(N2CCC(c3ccc4[nH]c(-c5ccc(OC)c(OC)c5)c(C)c4c3)CC2)CC1` [Example 54, 2-(3,4-dimethoxyphenyl)-5-(1′-(2-ethylbutyl)-[1,4′-bipiperidin]-4-yl)-3-methyl-1H-indole]: the IC50 amounted to 595 nM against human TLR7 and 238 nM against human TLR9.

With `COc1ccc(-c2[nH]c3ccc(C4CCN(CCN)CC4)cc3c2C)cc1OC` [Example 100, 2-(4-(2-(3,4-dimethoxyphenyl)-3-methyl-1H-indol-5-yl)piperidin-1-yl)ethan-1-amine], the IC50 against human TLR7 came to 175 nM; against human TLR9, 543 nM.

Take `COc1ccc(-c2[nH]c3ccc(C4CCN(C(=O)CN(C)C)CC4)cc3c2C2CCOCC2)cc1OC` [Example 393, 1-(4-(2-(3,4-dimethoxyphenyl)-3-(tetrahydro-2H-pyran-4-yl)-1H-indol-5-yl)piperidin-1-yl)-2-(dimethylamino)ethan-1-one]: the figures for the IC50 at human TLR7 and against human TLR9 were 248 nM and 4850 nM, respectively.

As to `COc1ccc(-c2[nH]c3ccc(C4CCN(C5CCCN(C(C)C)CC5)CC4)cc3c2C)cc1OC` (centres unmarked) [Example 92, 2-(3,4-dimethoxyphenyl)-5-(1-(1-isopropylazepan-4-yl)piperidin-4-yl)-3-methyl-1H-indole], the figures for the IC50 against human TLR7 and on human TLR9 were 576 nM and 59 nM, respectively.

Consider `COc1ccc(-c2[nH]c3ccc(C4CCN(C5CCNC5)CC4)cc3c2C)cc1OC` (centres unmarked) [Example 104, 2-(3,4-dimethoxyphenyl)-3-methyl-5-(1-(pyrrolidin-3-yl)piperidin-4-yl)-1H-indole], for which the IC50 at human TLR7 was 2170 nM; on human TLR9, 1050 nM.

Turning to `COc1ccc(-c2[nH]c3ccc(C4CCN(C5CCCC(N)C5)CC4)cc3c2C)cc1OC` (centres unmarked) [Example 105, 3-(4-(2-(3,4-dimethoxyphenyl)-3-methyl-1H-indol-5-yl)piperidin-1-yl)cyclohexan-1-amine], the results for the IC50 on human TLR7 and at human TLR9 were 144 nM and 385 nM, respectively.

For `COc1ccc(-c2[nH]c3ccc(C4CCN(CC5CCOCC5)CC4)cc3c2C)cc1OC` [Example 17, 2-(3,4-dimethoxyphenyl)-3-methyl-5-(1-((tetrahydro-2H-pyran-4-yl)methyl)piperidin-4-yl)-1H-indole], the IC50 at human TLR7 worked out at 368 nM; against human TLR9 it was 729 nM.

`COc1ccc(-c2[nH]c3ccc(C4CCNCC4)cc3c2C)cc1OC` [Example 1, 2-(3,4-dimethoxyphenyl)-3-methyl-5-(piperidin-4-yl)-1H-indole hydrochloride] had an IC50 against human TLR9 of 5910 nM.

In the case of `COc1ccc(-c2[nH]c3ccc(C4CCN(C(=O)CN5CCCCC5C[C@@H]5CCCN5C)CC4)cc3c2C(C)C)cc1OC` (stereo partly drawn) [Example 225, 1-(4-(2-(3,4-dimethoxyphenyl)-3-isopropyl-1H-indol-5-yl)piperidin-1-yl)-2-(2-(((S)-1-methylpyrrolidin-2-yl)methyl)piperidin-1-yl)ethan-1-one], the IC50 at human TLR7 turned out to be 445 nM; at human TLR9 it was 3230 nM.

On to `COc1ccc(-c2[nH]c3ccc(C4CCN(CC5CCCCN5)CC4)cc3c2C)cc1OC` (centres unmarked) [Example 101, 2-(3,4-dimethoxyphenyl)-3-methyl-5-(1-(piperidin-2-ylmethyl)piperidin-4-yl)-1H-indole], for which the IC50 against human TLR7 came to 1790 nM; at human TLR9 it was 209 nM.

Turning to `COc1ccc(-c2[nH]c3ccc(C4CCN(C(=O)CNc5cc(C(C)(C)C)n[nH]5)CC4)cc3c2C(C)C)cc1OC` [Example 216, 2-((3-(tert-butyl)-1H-pyrazol-5-yl)amino)-1-(4-(2-(3,4-dimethoxyphenyl)-3-isopropyl-1H-indol-5-yl)piperidin-1-yl)ethan-1-one], the IC50 against human TLR7 is 212 nM; against human TLR9, not below 50000 nM.

On human TLR9, `COc1ccc(-c2[nH]c3ccc(C4CCN(Cc5nccn5C)CC4)cc3c2C)cc1OC` [Example 16, 2-(3,4-dimethoxyphenyl)-3-methyl-5-(1-((1-methyl-1H-imidazol-2-yl)methyl)piperidin-4-yl)-1H-indole] gave an IC50 of 1970 nM. That is a single-digit micromolar value.
